Counter-ions that a name gives are not always drawn.
Target: T1, human TRPC6 (Homo sapiens, UniProt Q9Y210)
T1 construct: expressed in transfected cells
T1 sequence (Q9Y210 1-931): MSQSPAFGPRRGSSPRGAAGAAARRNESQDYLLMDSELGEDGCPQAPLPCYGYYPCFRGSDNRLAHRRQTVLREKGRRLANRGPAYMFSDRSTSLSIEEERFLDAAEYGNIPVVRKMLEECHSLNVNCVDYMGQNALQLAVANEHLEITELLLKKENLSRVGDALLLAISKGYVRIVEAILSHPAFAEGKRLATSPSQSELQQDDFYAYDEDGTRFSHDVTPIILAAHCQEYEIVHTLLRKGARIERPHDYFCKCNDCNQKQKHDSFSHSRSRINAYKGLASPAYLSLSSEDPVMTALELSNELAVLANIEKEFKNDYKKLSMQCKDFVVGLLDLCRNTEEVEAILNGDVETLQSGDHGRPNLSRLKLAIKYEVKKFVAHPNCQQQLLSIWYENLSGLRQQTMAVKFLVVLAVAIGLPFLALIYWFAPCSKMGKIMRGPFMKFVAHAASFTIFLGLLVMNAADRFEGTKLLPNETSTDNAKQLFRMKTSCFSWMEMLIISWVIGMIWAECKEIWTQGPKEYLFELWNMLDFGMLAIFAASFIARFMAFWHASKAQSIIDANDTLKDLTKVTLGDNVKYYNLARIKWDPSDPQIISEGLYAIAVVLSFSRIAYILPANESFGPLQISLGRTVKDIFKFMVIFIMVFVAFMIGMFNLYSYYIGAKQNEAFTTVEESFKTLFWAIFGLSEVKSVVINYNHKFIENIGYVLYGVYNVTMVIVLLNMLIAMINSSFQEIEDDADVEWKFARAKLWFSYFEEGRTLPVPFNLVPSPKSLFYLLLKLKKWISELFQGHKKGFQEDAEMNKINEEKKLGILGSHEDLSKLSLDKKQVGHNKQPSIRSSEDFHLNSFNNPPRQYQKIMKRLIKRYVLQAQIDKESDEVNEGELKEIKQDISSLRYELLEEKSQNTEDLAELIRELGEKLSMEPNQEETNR
Assay: TRPC6 calcium flux assay (FLIPR, OAG-stimulated calcium influx)
Assay type: cell-based
Settings: HEK293 cells stably transfected with human TRPC6, read-out: hTRPC6 Potency
In short: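 IC50 derived by plotting background-corrected peak fluorescence (180 s window, normalized to OAG-triggered signal vs buffer) against dose. Stable human TRPC6 HEK293 line was dye-loaded, exposed to compound 25 min, then challenged with 50 uM final OAG in 2 mM Ca2+ HEPES buffer pH 7.2, 0.5% DMSO.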

Compound	IC50 [nM]
N#C[C@H]1CCCN1C(=O)Cn1c(N2CC[C@@H](F)[C@H](N)C2)nc2cc(F)c(F)cc21 [Example 636, (R)-1-(2-(2-((3R,4R)-3-amino-4-fluoropiperidin-1-yl)-5,6-difluoro-1H-benzo[d]imidazol-1-yl)acetyl)pyrrolidine-2-carbonitrile]	326
COC(=O)C1CCN(C(=O)Cn2c(N3CC[C@@H](F)[C@H](N)C3)nc3cc(F)c(F)cc32)CC1 [Example 512, methyl 1-(2-(2-((3R,4R)-3-amino-4-fluoropiperidin-1-yl)-5,6-difluoro-1H-benzo[d]imidazol-1-yl)acetyl)piperidine-4-carboxylate]	162
CN(CC(F)(F)F)C(=O)Cn1c(N2CC[C@@H]3OCCN[C@H]3C2)nc2cc(F)ccc21 [Example 493, 2-(5-fluoro-2-((4aS,8aS)-hexahydro-2H-pyrido[4,3-b][1,4]oxazin-6(5H)-yl)-1H-benzo[d]imidazol-1-yl)-N-methyl-N-(2,2,2-trifluoroethyl)acetamide]	> 3750
N[C@@H]1CN(c2nc3cc(F)c(F)cc3n2Cc2nnc(C3CC3)o2)CC[C@H]1F [Example 581, (3R,4R)-1-(1-((5-cyclopropyl-1,3,4-oxadiazol-2-yl)methyl)-5,6-difluoro-1H-benzo[d]imidazol-2-yl)-4-fluoropiperidin-3-amine]	368
N#Cc1ccc2nc(N3CCC(F)(F)[C@H](N)C3)n(Cc3ncc(Cl)cn3)c2c1 [Example 41, (R)-2-(3-amino-4,4-difluoropiperidin-1-yl)-1-((5-chloropyrimidin-2-yl)methyl)-1H-benzo[d]imidazole-6-carbonitrile]	18.4
CN[C@@H]1CN(c2nc3cc(F)cc(F)c3n2[C@H](C)c2ccc(C#N)cn2)CC[C@H]1F (single isomer, unassigned) [Example 440]	1340
N[C@@H]1CN(c2nc3cc(F)c(F)cc3n2C2CCCN(c3ccccc3)C2=O)CC[C@H]1F (mixture of isomers) [Example 239, 3-(2-((3R,4R)-3-amino-4-fluoropiperidin-1-yl)-5,6-difluoro-1H-benzo[d]imidazol-1-yl)-1-phenylpiperidin-2-one]	562
C[C@H](c1ccc(Cl)cn1)n1c(N2CC[C@@H](F)[C@H](N)C2)nc2ccccc21 [Example 215, (3R,4R)-1-(1-((R)-1-(5-chloropyridin-2-yl)ethyl)-1H-benzo[d]imidazol-2-yl)-4-fluoropiperidin-3-amine hydrochloride]	593
N#Cc1ccc(Cn2c(N3CC[C@@H](F)[C@H](N)C3)nc3cc(F)cc(F)c32)cc1 [Example 156]	61.7
C[C@H](c1ccc(C#N)cn1)n1c(N2CC[C@H]3OCCN[C@@H]3C2)nc2cc(F)cc(F)c21 [Example 271, 6-((1R)-1-(5,7-difluoro-2-((4aR,8aR)-hexahydro-2H-pyrido[4,3-b][1,4]oxazin-6(5H)-yl)-1H-benzimidazol-1-yl)ethyl)-3-pyridinecarbonitrile]	158
CN(CC(F)(F)F)C(=O)Cn1c(N2CC[C@@H](F)[C@H](N)C2)nc2cc(C(F)(F)F)ccc21 [Example 580, 2-(2-((3R,4R)-3-amino-4-fluoropiperidin-1-yl)-5-(trifluoromethyl)-1H-benzo[d]imidazol-1-yl)-N-methyl-N-(2,2,2-trifluoroethyl)acetamide]	365
N#Cc1ccc(Cn2c(N3CCC[C@H](N)C3)nc3ccccc32)cn1 [Example 210, (S)-5-((2-(3-aminopiperidin-1-yl)-1H-benzo[d]imidazol-1-yl)methyl)picolinonitrile]	69.1
N#Cc1ccc(Cn2c(N3C[C@@H]4NCCO[C@@H]4C3)nc3ccccc32)nc1 [Example 99, 6-((2-((4aS,7aR)-hexahydropyrrolo[3,4-b][1,4]oxazin-6(2H)-yl)-1H-benzo[d]imidazol-1-yl)methyl)nicotinonitrile hydrochloride]	> 3750
Cc1csc(Cn2c(N3CC[C@@H](F)[C@H](N)C3)nc3cc(F)c(F)cc32)n1 [Example 568, (3R,4R)-1-(5,6-difluoro-1-((4-methylthiazol-2-yl)methyl)-1H-benzo[d]imidazol-2-yl)-4-fluoropiperidin-3-amine]	48.1
N#Cc1ccc(Cn2c(N3CCC[C@@H](N)C3)nc3ccccc32)c(Cl)c1 [Example 394, (R)-4-((2-(3-aminopiperidin-1-yl)-1H-benzo[d]imidazol-1-yl)methyl)-3-chlorobenzonitrile]	732
N#Cc1ccc(Cn2c(N3CC[C@H](F)[C@H](N)C3)nc3ccccc32)cc1 [Example 172, 4-((2-((3R,4S)-3-amino-4-fluoropiperidin-1-yl)-1H-benzo[d]imidazol-1-yl)methyl)benzonitrile]	2.22
N#Cc1ccc(Cn2c(N3CCC[C@@H](N)C3)nc3ccccc32)cc1 [Example 162, (R)-4-((2-(3-aminopiperidin-1-yl)-1H-benzo[d]imidazol-1-yl)methyl)benzonitrile]	257
CCCN(C)C(=O)Cn1c(N2CC[C@@H](F)[C@H](N)C2)nc2cc(F)c(F)cc21 [Example 616, 2-(2-((3R,4R)-3-amino-4-fluoropiperidin-1-yl)-5,6-difluoro-1H-benzo[d]imidazol-1-yl)-N-methyl-N-propylacetamide]	32.3
CN[C@H]1CCCN(c2nc3ccccc3n2[C@H](C)c2ccc(C#N)cn2)C1 [Example 255, 6-((1R)-1-(2-((3S)-3-(methylamino)-1-piperidinyl)-1H-benzimidazol-1-yl)ethyl)-3-pyridinecarbonitrile]	101

Next, values leading:

IC50 [nM]	Compound
26.9	N[C@@H]1CN(c2nc3cc(F)c(F)cc3n2CC(=O)N2CCCCC2)CC[C@H]1F [Example 281, 2-(2-((3R,4R)-3-amino-4-fluoro-1-piperidinyl)-5,6-difluoro-1H-benzimidazol-1-yl)-1-(1-piperidinyl)ethanone]
25.9	N#Cc1ccc(Cn2c(N3CC[C@H](F)[C@@H](N)C3)nc3ccccc32)cc1 [Example 170, 4-((2-((3S,4S)-3-amino-4-fluoropiperidin-1-yl)-1H-benzo[d]imidazol-1-yl)methyl)benzonitrile]
5.04	N[C@@H]1CN(c2nc3ccc(F)cc3n2CC(=O)Nc2nccs2)CC[C@H]1F [Example 660, 2-(2-((3R,4R)-3-amino-4-fluoropiperidin-1-yl)-6-fluoro-1H-benzo[d]imidazol-1-yl)-N-(thiazol-2-yl)acetamide]
> 3750	CN(CC1CCS(=O)(=O)C1)C(=O)Cn1c(N2CC[C@@H](F)[C@H](N)C2)nc2cc(F)c(F)cc21 (mixture of isomers) [Example 652, 2-(2-((3R,4R)-3-amino-4-fluoropiperidin-1-yl)-5,6-difluoro-1H-benzo[d]imidazol-1-yl)-N-((1,1-dioxidotetrahydrothiophen-3-yl)methyl)-N-methylacetamide]
2.92	N#Cc1ccc(Cn2c(N3CC[C@H](F)[C@H](N)C3)nc3c(Cl)cccc32)nc1 [Example 5]
19.8	Cc1nnc(Cn2c(N3CC[C@@H](F)[C@H](N)C3)nc3ccc(F)cc32)s1 [Example 561, (3R,4R)-4-fluoro-1-(6-fluoro-1-((5-methyl-1,3,4-thiadiazol-2-yl)methyl)-1H-benzo[d]imidazol-2-yl)piperidin-3-amine]
72	N#Cc1ccc(Cn2c(N3CC[C@H](O)[C@H](N)C3)nc3ccc(Cl)cc32)nc1 [Example 153, 6-((2-((3R,4S)-3-amino-4-hydroxypiperidin-1-yl)-6-chloro-1H-benzo[d]imidazol-1-yl)methyl)nicotinonitrile]
1.37	N[C@@H]1CN(c2nc3ccccc3n2Cc2ccc(Cl)cn2)CC[C@@H]1F [Example 86, (3R,4S)-1-(1-((5-chloropyridin-2-yl)methyl)-1H-benzo[d]imidazol-2-yl)-4-fluoropiperidin-3-amine hydrochloride]
> 3750	N#Cc1ccc(Cn2c(N3CCC[C@](N)(C(N)=O)C3)nc3ccccc32)nc1 [Example 103, (R)-3-amino-1-(1-((5-cyanopyridin-2-yl)methyl)-1H-benzo[d]imidazol-2-yl)piperidine-3-carboxamide]
765	N[C@@H]1CN(c2nc3cc(F)ccc3n2Cc2nnc(C(F)F)s2)CC[C@H]1F [Example 587, (3R,4R)-1-(1-((5-(difluoromethyl)-1,3,4-thiadiazol-2-yl)methyl)-5-fluoro-1H-benzo[d]imidazol-2-yl)-4-fluoropiperidin-3-amine]
73.5	N[C@@H]1CN(c2nc3ccc(F)cc3n2Cc2ncc(Cl)cn2)CC[C@H]1F [Example 289, (3R,4R)-1-(1-((5-chloropyrimidin-2-yl)methyl)-6-fluoro-1H-benzo[d]imidazol-2-yl)-4-fluoropiperidin-3-amine]

— US11332459B2 (TEIJIN PHARMA LIMITED, priority 2017, dated 2022)
